Test results published in patent publication US20060004086A1, “Method of reducing Abeta42 and treating diseases” (Mayo Foundation for Medical Education and Research, priority 2000, published 2006).
Entries after “also recorded” stand apart in the source; their conditions may differ. Where two headings read alike, the source gives them in different places.

Tests used:
[1] = test system: Aβ42 secretion; assay: Non-selective and selective COX-inhibitors tested for effect on Aβ42 levels in cell cultures (Table 1 summary); format: cell-based; details: cell cultures, cell line and concentration not stated
Procedure: All measurements were performed in duplicate.
(§1) Aβ40 and Aβ42 levels in cell culture supernatants were analyzed using ELISA. Aβ42/Aβ40 ratios and total Aβ levels were normalized to values obtained from DMSO-treated cultures. […] NSAIDs were verified using NMR and mass spectrometry.

[2] = test system: Aβ42 secretion; assay: Primary in vitro screen, CHO-APP695NL,I,his cells, end-specific Aβ40 and Aβ42 ELISAs; format: cell-based, Chinese hamster; details: for activity at 100 µM / activity at 10 µM: Cricetulus griseus, 6 h; for selective reduction of Aβ42 levels in the primary screen: 10 μM or 100 μM, classification on a 20% change
Procedure: Aβ40 and Aβ42 levels in culture supernatants were determined for each time points using ELISA.
In a primary screen, the effects of NSAIDs on Aβ42 secretion by a CHO cell line that expressed APP(CHO-APP695NL,I,his) were examined. Duplicate cell cultures were treated with (a) a vehicle, (b) 10 μM of NSAID, or (c) 100 μM of NSAID.
To determine Aβ40 and Aβ42 levels, six-hour culture supernatants taken from cells grown in a single well of a twenty-four-well plate were used in end-specific Aβ40 and Aβ42 ELISAs (Suzuki, et al. (1994) Sci 264:[…]). Aβ40 and Aβ42 levels of cultures treated with NSAID were compared with those of cultures treated with the vehicle alone. […] NSAIDs that caused either selective reduction of Aβ42 levels or reduction in both Aβ40 and Aβ42 levels are subjected to a secondary screen.

[3] = plasma concentration of the drug; cited from earlier work
[4] = test system: brain Aβ42 levels in Tg2576 mice; assay: Acute oral dosing of three-month-old Tg2576 mice, brain Aβ ELISA; format: in vivo, mouse; details: for brain Aβ42 levels: three-month old Tg2576 mice, 100 mg/kg/day orally for three days, compared with vehicle
Procedure: NSAIDs were dissolved in an appropriate vehicle. Dimethyl sulfoxide (DMSO), ethanol, and ethyl acetate are some examples. The NSAID solution was mixed with Kool-Aid and administered orally using a medicine dropper. […] At two hours after the final doses were administered, animals were sacrificed, and SDS soluble Aβ40 and Aβ42 were analyzed using ELISA.
Three month old mice have high levels of soluble Aβ in the brain but no Aβ deposition (see Hsiao et al. (1996) Science 274:99-102). […] Brain levels of SDS-soluble Aβ40 and Aβ42 were measured using ELISA.
Compounds were administered orally.

[5] = test system: Aβ42 secretion; assay: Aβ40/Aβ42 ELISA of culture supernatants, CHO cells expressing APP751; format: cell-based, Chinese hamster; details: CHO cells expressing APP751; concentrations up to 400 μM
Procedure: Cell cultures were maintained in standard cell culture media supplemented with 10% fetal bovine serum and 100 U/mL penicillin/streptomycin (Life Technologies Inc., Germany).
For analyses of Aβ secretion, APP processing, and notch cleavage, cells were cultured in serum-containing media and pretreated overnight with a specific NSAID. The next day, media were changed and cultures were treated with the same NSAID for another 24 hours.
Aβ was detected by sandwich enzyme-linked immunosorbent assay (ELISA) as described by Murphy et al. (2000) J Biol Chem 275:26277-84. Following NSAID treatment, culture supernatants were collected, and cell debris was removed by centrifugation. Complete protease inhibitor cocktail (Roche Molecular Biochemicals, IN, USA) was added to the media and Aβ40 and Aβ42 levels were quantified using end-specific Aβ ELISAs. All measurements were performed in duplicate.
The effect of sulindac sulfone on Aβ42 secretion was examined. Sulindac sulfone is an oxidation product of the pro-drug sulindac. […] Cell cultures were treated with increasing concentrations of sulindac sulfone. Aβ40 and Aβ42 levels in culture supernatants were analyzed using ELISA.
as §1

[6] = test system: Aβ42 production; assay: Aβ42 production in APP695-transfected H4 cells; format: cell-based, human
Procedure: In a tertiary screen, Aβ production, sAPP production, and toxicity in a human H4 neuroglioma cell line that expressed APP are examined for all FDA-approved NSAIDs and novel NSAIDs that selectively reduce Aβ42 levels. Three doses of each NSAID are tested. The first is a dose that is expected to cause maximum reduction of Aβ42 levels. The second dose is one that reduces Aβ42 levels by 50% of the maximum value, while the third dose is one that reduces Aβ42 levels by 10-20% of the maximum value.

[7] = 100 μM, six-hour culture supernatants, read-out: % Control % Aβ42
[8] = 100 μM, six-hour culture supernatants, read-out: % Control Aβ40
[9] = 100 μM, six-hour culture supernatants, read-out: % Control Aβ42
[10] = Tg2576 mice, three month-old, 50 mg/kg/day orally for three days, SDS-soluble, mean ± SD
[11] = Tg2576 mice, treatment for three days, 50 mg/kg/day
[12] = 10 μM, six-hour culture supernatants, read-out: % Control % Aβ42
[13] = 10 μM, six-hour culture supernatants, read-out: % Control Aβ40
[14] = 10 μM, six-hour culture supernatants, read-out: % Control Aβ42
[15] = 100 μM, six-hour culture supernatants
[16] = concentration not given, six-hour culture supernatants
[17] = 10 μM, six-hour culture supernatants

O=C(O)Cc1ccccc1Nc1c(Cl)cccc1Cl [Diclofenac]
total Aβ levels [1]: did not affect | activity at 100 µM [2, 7]: 100% | activity at 100 µM [2, 8]: 88% | activity at 100 µM [2, 9]: 87% | Plasma [3]: 6.1 µM

Cc1ccc(Cl)c(Nc2ccccc2C(=O)O)c1Cl [Meclofenamic acid, meclofenamic acid]
Brain levels of Aβ40 [4, 10]: 2932 ± 289 fmol/gm | Brain levels of Aβ42 [4, 10]: 679 ± 343 fmol/gm | % Aβ42 in brain ([4]; Tg2576 mice, three month-old, 50 mg/kg/day orally for three days, mean ± SD): 18.6 ± 8.7 % | Aβ40 levels in the brain [4, 11]: no change | reduction in Aβ42 levels in the brain [4, 11]: approximately 30% | selective reduction of Aβ42 levels in the primary screen [2]: selectively reduced Aβ42 levels | selective reduction of Aβ42, time course ([2]; CHO-APP695NL,I,his cells treated for six, twelve, or twenty-four hours): detectable at six hours | activity at 10 µM [2, 12]: 37% | activity at 10 µM [2, 13]: 39% | activity at 10 µM [2, 14]: 13%

O=C(O)c1cc([N+](=O)[O-])ccc1NCCCc1ccccc1 [NPPB, 5-nitro-2-(3-phenylpropylamino)benzoic acid]
activity at 10 µM [2, 12]: 66% | activity at 10 µM [2, 13]: 81% | activity at 10 µM [2, 14]: 48%

O=C(O)CCC(=O)c1ccc(-c2ccccc2)cc1 [Fenbufen]
activity at 100 µM [2, 7]: 107% | activity at 100 µM [2, 8]: 100% | activity at 100 µM [2, 9]: 109%

CC(C(=O)O)c1cccc(C(=O)c2ccccc2)c1 (stereo not shown) [Ketoprofen]
activity at 100 µM [2, 7]: 117% | activity at 100 µM [2, 8]: 88% | activity at 100 µM [2, 9]: 107%

COc1ccc2cc([C@H](C)C(=O)O)ccc2c1 [Naproxen, naproxen]
total Aβ levels [5]: did not affect total Aβ levels | activity at 100 µM [2, 7]: 104% | activity at 100 µM [2, 8]: 107% | activity at 100 µM [2, 9]: 112%

Cc1cccc(Nc2ccccc2C(=O)O)c1C [Mefenamic Acid, mefenamic acid]
selective reduction of Aβ42 levels in the primary screen [2]: selectively reduced Aβ42 levels | activity at 100 µM [2, 7]: 72% | activity at 100 µM [2, 8]: 116% | activity at 100 µM [2, 9]: 78%

CC(C(=O)O)c1ccc2c(c1)[nH]c1ccc(Cl)cc12 (stereo not shown) [Carprofen]
activity at 100 µM [2, 7]: 86% | activity at 100 µM [2, 8]: 58% | activity at 100 µM [2, 9]: 48%

CCc1cccc2c3c([nH]c12)C(CC)(CC(=O)O)OCC3 (stereo not shown) [Etodolac]
activity at 100 µM [2, 7]: 120% | activity at 100 µM [2, 8]: 85% | activity at 100 µM [2, 9]: 109%

CC(C(=O)O)c1ccc(-c2ccccc2)c(F)c1 (stereo not shown) [Flurbiprofen, flurbiprofen]
brain Aβ42 levels [4]: lower Aβ42 levels | activity at 100 µM ([2]; read-out: % Control % Aβ42): 80% | activity at 100 µM ([2]; read-out: % Control Aβ40): 93% | activity at 100 µM ([2]; read-out: % Control Aβ42): 70%

O=C(O)c1ccccc1Nc1cccc(C(F)(F)F)c1 [Flufenamic Acid, flufenamic acid]
selective reduction of Aβ42 levels in the primary screen [2]: selectively reduced Aβ42 levels | activity at 10 µM [2, 12]: 70% | activity at 10 µM [2, 13]: 99% | activity at 10 µM [2, 14]: 64%

CN1C(C(=O)Nc2ccccn2)=C(O)c2sccc2S1(=O)=O [Tenoxicam]
activity at 100 µM [2, 7]: 112% | activity at 100 µM [2, 8]: 80% | activity at 100 µM [2, 9]: 92%

Cc1cc(NC(=O)C2=C(O)c3ccccc3S(=O)(=O)N2C)no1 [Isoixicam]
% Control % Aβ42 [2, 15]: 103% | % Control Aβ40 [2, 15]: 109% | % Control Aβ42 [2, 15]: 112%

Cc1cnc(NC(=O)C2=C(O)c3ccccc3S(=O)(=O)N2C)s1 [Meloxicam]
activity at 10 µM [2, 12]: 158% | activity at 10 µM [2, 13]: 64% | activity at 10 µM [2, 14]: 122% | Plasma [3]: 15 µM

CN1C(C(=O)Nc2ccccn2)=C(O)c2ccccc2S1(=O)=O [Piroxicam]
activity at 100 µM [2, 7]: 75% | activity at 100 µM [2, 8]: 142% | activity at 100 µM [2, 9]: 101%

C[C@@H](C(=O)O)c1ccc(-c2ccccc2)c(F)c1 [R-flurbiprofen, (2R)-2-(2-Fluoro-1,1′-biphenyl-4-yl)propanoic acid]
brain Aβ42 levels ([4]; 100 mg/kg/day): more effective at lowering brain Aβ42 in this acute dosing paradigm than S-flurbiprofen; also recorded: lower Aβ42 levels | levels of Aβ40 production [6]: not altered | Aβ42 levels lowered by ([6]; 10 μM): 20% | Aβ42 levels lowered by ([6]; 100 μM): 49%

CN(C)CCCOc1nn(Cc2ccccc2)c2ccccc12 [Benzydamine]
activity at 100 µM [2, 7]: 132% | activity at 100 µM [2, 8]: 90% | activity at 100 µM [2, 9]: 128%

COc1ccc2cc(CCC(C)=O)ccc2c1 [Nabumetone]
activity at 100 µM [2, 7]: 70% | activity at 100 µM [2, 8]: 157% | activity at 100 µM [2, 9]: 103%

CC(C(=O)O)c1cccc(Oc2ccccc2)c1 (stereo not shown) [Fenoprofen, fenoprofen]
activity at 100 µM [2, 7]: 63% | activity at 100 µM [2, 8]: 102% | activity at 100 µM [2, 9]: 60%

COc1ccc2c(c1)c(CC(=O)OCC(=O)O)c(C)n2C(=O)c1ccc(Cl)cc1 [Acemetacin]
activity at 100 µM [2, 7]: 93% | activity at 100 µM [2, 8]: 110% | activity at 100 µM [2, 9]: 101%

C[C@H](C(=O)O)c1ccc(-c2ccccc2)c(F)c1 [S-flurbiprofen]
levels of Aβ40 production [6]: not altered | Aβ42 levels lowered by ([6]; 100 μM): 58%

O=C(c1ccccc1)c1ccc2n1CCC2C(=O)O (stereo not shown) [Ketorlolac]
activity at 10 µM [2, 12]: 142% | activity at 10 µM [2, 13]: 84% | activity at 10 µM [2, 14]: 131%

CC(C(=O)O)c1ccc(C(=O)c2cccs2)cc1 (stereo not shown) [Suprofen]
activity at 100 µM [2, 7]: 102% | activity at 100 µM [2, 8]: 126% | activity at 100 µM [2, 9]: 129%

CC(C(=O)O)c1ccc(-c2ccccc2)c(F)c1 (racemic) [Flurbiprofen, flurbiprofen]
levels of Aβ40 production [6]: not altered | Aβ42 levels lowered by ([6]; 100 μM): 50%

CC(C(=O)O)c1ccc(N2Cc3ccccc3C2=O)cc1 (stereo not shown) [Indoprofen]
activity at 100 µM [2, 7]: 107% | activity at 100 µM [2, 8]: 116% | activity at 100 µM [2, 9]: 126%

COc1ccc(-n2nc(C(F)(F)F)cc2-c2ccc(Cl)cc2)cc1 [SC560]
activity at 10 µM ([2]; read-out: % Control % Aβ42): 227% | activity at 10 µM ([2]; read-out: % Control Aβ40): 47% | activity at 10 µM ([2]; read-out: % Control Aβ42): 166%

CC1=C(CC(=O)O)c2cc(F)ccc2/C1=C\c1ccc(S(C)(=O)=O)cc1 [Sulindac Sulfone, sulindac sulfone]
Aβ42/Aβ40 ratios [5]: no changes in Aβ42/Aβ40 ratios were observed | % Control % Aβ42 [2, 16]: 92% | % Control Aβ40 [2, 16]: 109% | % Control Aβ42 [2, 16]: 97%

Cc1ccc(C(C)C)cc2c(C)ccc1-2 [Guaiazulene]
activity at 100 µM [2, 7]: 156% | activity at 100 µM [2, 8]: 70% | activity at 100 µM [2, 9]: 124%

Cc1c(Cl)cccc1Nc1ccccc1C(=O)O [Tolfenamic Acid, tolfenamic acid]
selective reduction of Aβ42 levels in the primary screen [2]: did not | activity at 100 µM [2, 7]: 110% | activity at 100 µM [2, 8]: 84% | activity at 100 µM [2, 9]: 95%

Oc1ccc(C=Cc2cc(O)cc(O)c2)cc1 [Resveratrol]
activity at 10 µM [2, 12]: 130% | activity at 10 µM [2, 13]: 75% | activity at 10 µM [2, 14]: 107%

Cc1ccc(-c2cc(C(F)(F)F)nn2-c2ccc(S(N)(=O)=O)cc2)cc1 [Celecoxib, celecoxib]
Plasma [3]: 0.015 µM

CCCCC#CCSc1ccccc1OC(C)=O [APHS]
% Control % Aβ42 [2, 17]: 178% | % Control Aβ40 [2, 17]: 50% | % Control Aβ42 [2, 17]: 114%
